In the NIST ThermoML archive (doi:10.1016/j.jct.2004.01.006):
Numbers after ± are expanded uncertainties.

Key:
[1] = Molar enthalpy of transition or fusion; conditions: Crystal; Adiabatic calorimetry
[2] = Crystal; Adiabatic calorimetry

With `O=Cc1ccc(Cl)cc1Cl` [2,4-dichlorobenzaldehyde] as the compound, how does the “Molar enthalpy of transition or fusion” value [1] read?
Its value is 4.892 ± 0.0167 kcal/mol.

What about the Triple point temperature [2] of the same compound?
The Triple point temperature was 347.24 ± 0.27 K.
